According to patent EP4755888A1 (ILAb Co., Ltd., priority 2023, dated 2025):

Target: PD-1/PD-L1 (Homo sapiens, UniProt Q9NZQ7)
Experiment: TR-FRET PD-1/PD-L1 binding inhibition at the molecular level (free proteins)
Conditions: Tag1-PD-L1 and Tag2-PD-1 proteins, twelve concentrations from 200 nM, 2 hours at room temperature, read-out: FRET assay (IC50)
Procedure: In order to evaluate the inhibitory activity of the compounds synthesized according to the above Preparation Examples against PD-1/PD-L1 molecules in a free protein state,a TR-FRET (Time-Resolved Fluorescence Energy Transfer) experimetn was performed as described below.
Specifically, the compounds were prepared in a 96-well plate by serial dilution starting from 200 nM with 1/2 dilutions to obtain a total of twelve concentrations, and 2 µL of each compound solution was added to a 384-well plate. Thereafter, Tag1-PD-L1 protein and Tag2-PD-1 protein were each prepared at a 1x concentration, mixed at a ratio of 1:1, and 8 µL of the mixed solution was added to each well of the 384-well plate containing the compounds. Anti-Tag1 Eu Cryptate reagent and Anti-Tag2 XL665 antibody were each prepared at a 1* concentration, mixed at a ratio of 1:1, and 10 µL of the mixed solution was added to each well of the 384-well plate containing the compounds and proteins, followed by incubation at room temperature for 2 hours. Upon completion of the reaction, fluorescence signals at wavelengths of 620 nm and 665 nm were measured using a microplate reader.

Sequence of PD-1/PD-L1 (Q9NZQ7 19-238 limits assumed): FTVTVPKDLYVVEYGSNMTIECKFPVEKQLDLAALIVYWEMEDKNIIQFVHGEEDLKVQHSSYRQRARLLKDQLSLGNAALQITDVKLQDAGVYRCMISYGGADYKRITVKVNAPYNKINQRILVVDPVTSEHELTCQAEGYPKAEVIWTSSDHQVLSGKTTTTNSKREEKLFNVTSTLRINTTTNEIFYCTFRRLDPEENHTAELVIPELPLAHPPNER

Structure (SMILES) | IC50 [nM]
O=C(Nc1cccc(-c2cccc(NC(=O)c3cc4n(n3)CCCC4N3CCC(C(=O)O)CC3)c2Cl)c1Cl)c1ccc(CN2CC[C@@H](O)C2)cn1 (stereo partly drawn) [Compound 107, 1-(2-((2,2'-dichloro-3'-(5-(((R)-3-hydroxypyrrolidin-1-yl)methyl)picolinamido)-[1,1'-biphenyl]-3-yl)carbamoyl)-4,5,6,7-tetrahydropyrazolo[1,5-a]pyridin-4-yl)piperidine-4-carboxylic acid] | 10 to 100
O=C(Nc1cccc(-c2cccc(Nc3nc(C(F)(F)F)nc4cccnc34)c2Cl)c1Cl)c1cc2n(n1)CCC[C@@H]2N1CC[C@@H](O)C1 [Compound 333, (S)-N-(2,2'-dichloro-3'-((2-(trifluoromethyl)pyrido[3,2-d]pyrimidin-4-yl)amino)-[1,1'-biphenyl]-3-yl)-4-((R)-3-hydroxypyrrolidin-1-yl)-4,5,6,7-tetrahydropyrazolo[1,5-a]pyridine-2-carboxamide] | 10 to 100
O=C(Nc1cccc(-c2cccc(Nc3nc(C(F)F)nc4cc(CN5CC[C@@H](O)C5)cnc34)c2Cl)c1Cl)c1cc2n(n1)CCC[C@H]2N1CCC(O)CC1 [Compound 296, (R)-N-(2,2'-dichloro-3'-((2-(difluoromethyl)-7-(((R)-3-hydroxypyrrolidin-1-yl)methyl)pyrido[3,2-d]pyrimidin-4-yl)amino)-[1,1'-biphenyl]-3-yl)-4-(4-hydroxypiperidin-1-yl)-4,5,6,7-tetrahydropyrazolo[1,5-a]pyridine-2-carboxamide] | 10 to 100
Cc1c(NC(=O)c2cc3n(n2)CCC[C@@H]3N2CCC(C(=O)O)CC2)cccc1-c1cccc(Nc2nc(C(F)F)nc3cccnc23)c1C [Compound 291, (S)-1-(2-((3'-((2-(difluoromethyl)pyrido[3,2-d]pyrimidin-4-yl)amino)-2,2'-dimethyl-[1,1'-biphenyl]-3-yl)carbamoyl)-4,5,6,7-tetrahydropyrazolo[1,5-a]pyridin-4-yl)piperidine-4-carboxylic acid] | 10 to 100

Results, then the compound that gave them:

IC50 [nM] | Structure (SMILES)
< 10 | Cn1c(C(=O)Nc2cccc(-c3cccc(NC(=O)c4cc5n(n4)CCC[C@@H]5N4CC[C@@H](C(=O)O)C4)c3Cl)c2Cl)nc2c1CCN(CCC13CCC(C(=O)O)(CC1)C3)C2 [Compound 307, (R)-1-((S)-2-((3'-(5-(2-(4-carboxybicyclo[2.2.1]heptan-1-yl)ethyl)-1-methyl-4,5,6,7-tetrahydro-1H-imidazo[4,5-c]pyridine-2-carboxamido)-2,2'-dichloro-[1,1'-biphenyl]-3-yl)carbamoyl)-4,5,6,7-tetrahydropyrazolo[1,5-a]pyridin-4-yl)pyrrolidine-3-carboxylic acid]
< 10 | COc1cc(C(=O)Nc2cccc(-c3cccc(NC(=O)c4cc5n(n4)CCCC5NCC(=O)O)c3Cl)c2Cl)cc(F)c1CN1CC[C@@H](C(=O)O)C1 (stereo partly drawn) [Compound 193, (3R)-1-(4-((3'-(4-((carboxymethyl)amino)-4,5,6,7-tetrahydropyrazolo[1,5-a]pyridine-2-carboxamido)-2,2'-dichloro-[1,1'-biphenyl]-3-yl)carbamoyl)-2-fluoro-6-methoxybenzyl)pyrrolidine-3-carboxylic acid]
< 10 | COc1nc(-c2cccc(-c3cccc(NC(=O)c4cc5n(n4)CCCC5O)c3C)c2C)cnc1CNC[C@@H]1CCC(=O)N1 (stereo partly drawn) [Compound 110, 4-hydroxy-N-(3'-(6-methoxy-5-(((((S)-5-oxopyrrolidin-2-yl)methyl)amino)methyl)pyrazin-2-yl)-2,2'-dimethyl-[1,1'-biphenyl]-3-yl)-4,5,6,7-tetrahydropyrazolo[1,5-a]pyridine-2-carboxamide]
10 to 100 | O=C(Nc1cccc(-c2cccc(Nc3nc(C(F)(F)F)nc4cccnc34)c2Cl)c1Cl)c1cc2n(n1)CCC[C@H]2N1CC[C@@H](O)C1 [Compound 334, (R)-N-(2,2'-dichloro-3'-((2-(trifluoromethyl)pyrido[3,2-d]pyrimidin-4-yl)amino)-[1,1'-biphenyl]-3-yl)-4-((R)-3-hydroxypyrrolidin-1-yl)-4,5,6,7-tetrahydropyrazolo[1,5-a]pyridine-2-carboxamide]
